Experimental data from PMC6670186, “Novel prodrugs of decitabine with greater metabolic stability and less toxicity” (Clinical Epigenetics, 2019).
Marks after values point to notes of the source that are not given here.

Tests used:
[1] = Stability in phosphate-buffered saline; type: physicochemical; conditions: for t1/2 in PBS: PBS solution at 37°C; for Stability t1/2 in PBS: PBS 37 °C, 20** + x h, 20 h = t1/2 in PBS of DAC, x = OR compound
Method: Five microliters of DAC derivatives (1.0 mg/100 μL of DMSO) was added to 200 μL of a stirred PBS solution at 37 °C. The mixture was stirred continuously for 1 day. The remaining of the starting derivatives was assayed using the HPLC analytical conditions as described above.

[2] = Partition coefficient (log P), shake-flask method, n-octanol/PBS; type: physicochemical
Method: The method employed HPLC with the following conditions: ZORBAX Bonus C18 column (4.6 × 150 mm, 3 μm); eluent: A = 10 mM HCO2NH4, B = acetonitrile, A:B = 50:50 (an isocratic mode for 5 min), and A:B = 99:1–20:80 (a gradient mode for 15 min); flow rate = 1.0 mL/min; oven temperature = 40 °C; detection = 240 nm.

Cytidine deaminase (CDA) = system: Cytidine deaminase (CDA); set-up: method as in J. Clinical Investigation, 1974, 53(3), 922-931; conditions: substrate of CDA; ref J. Clinical Investigation, 1974, 53(3), 922-931; cited from earlier work
[3] = target: T1, human recombinant cytidine deaminase (Homo sapiens, UniProt P32320); assay: Stability in the presence of cytidine deaminase; type: in vitro ADME; conditions: for Enzymatic stability, retained: cytidine deaminase, after 2 h
T1 construct: His; purchased AT Gen Co. Ltd; Seoul, Korea
Excerpt: The remaining of the starting derivatives were continuously assayed using HPLC analytical conditions as described above.

[4] = Chemical stability in a protic solvent; type: physicochemical
[5] = Pharmacokinetics in mice, intraperitoneal; type: in vivo; conditions: for AUC 0 → lim, DAC / AUC 0 → lim, Total / AUC 0 → lim, OR compound: plasma; for AUC 0 → lim, DAC: DAC (metabolite for OR compounds), equimolar dose; for AUC 0 → lim, Total: OR compound + metabolite DAC; for AUC 0 → lim, OR compound: dose equimolar to 0.20 mg/kg DAC
Method: Six-week-old female ICR mice were intraperitoneally injected with 0.20 mg/kg of DAC, 0.29 mg/kg of OR-2003, 0.32 mg/kg of OR-2009, 0.30 mg/kg of OR-2100, and 0.31 mg/kg of OR-2102. The doses were decided so that equivalent amounts of molar concentration would be administered. The blood plasma was collected before and at 5, 15, 30, 45, 60, 90, and 120 min after the treatment. All experimental procedures were approved by the Committee of National Cancer Center.

[6] = system: exogenous UCHL1 promoter and OSR2 promoter CpG island; assay: Quantitative methylation-specific PCR of marker genes; type: cell-based, Human; conditions: qMSP
Method: One microgram of EcoRV-digested genomic DNA was treated with sodium bisulfite as described previously. Bisulfite-treated DNA was resuspended in 40 μL of TE-buffer (10 mM Tris, pH 8.0; 1 mM EDTA, pH 8.0), and 1 μL was used for quantitative methylation-specific PCR (qMSP) using primers specific to methylated and unmethylated target loci, including MetLuc-UCHL1 promoter, OSR2 promoter, and UCHL1 promoter (Additional file 1: Table S1). As a fully unmethylated DNA control, genomic DNA from peripheral blood cells of a healthy person was amplified twice using a GenomiPhi DNA amplification kit (GE Healthcare Life Sciences; Little Chalfont, UK). As a fully methylated DNA control, the fully unmethylated DNA was methylated by SssI methylase (New England Biolabs; Beverly, MA).

T1 sequence (P32320 whole entry): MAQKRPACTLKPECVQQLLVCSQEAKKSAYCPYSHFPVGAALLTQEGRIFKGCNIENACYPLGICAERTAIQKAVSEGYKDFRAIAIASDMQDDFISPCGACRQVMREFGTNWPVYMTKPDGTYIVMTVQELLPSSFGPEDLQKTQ

t1/2 in PBS [1] | Log PO/PBS [2] | SMILES | further results
1.3 h | 4.56 | CCCC[Si](C)(C)OC[C@H]1O[C@@H](n2cnc(N)nc2=O)C[C@@H]1O [Methyl, Methyl, n-Butyl] | –
> 24 h | 1.91 | CC(C)(C)[Si](C)(C)OC[C@H]1O[C@@H](n2cnc(N)nc2=O)C[C@@H]1O [Methyl, Methyl, t-Butyl] | stability in a protic solvent [4]: stable
14 h | 2.52 | C[Si](C)(OC[C@H]1O[C@@H](n2cnc(N)nc2=O)C[C@@H]1O)C1CCCCC1 [OR-2009] | half-life (time to release DAC) [1]: ≥ 14 h; Stability t1/2 in PBS [1]: 20** + 14 h; total AUC of OR compound and metabolite DAC compared with DAC [5]: larger AUCs than that of DAC; AUC 0 → lim, DAC [5]: 0.238 µM·h; AUC 0 → lim, Total [5]: 0.552 µM·h; AUC 0 → lim, OR compound [5]: 0.314 µM·h; Enzymatic stability, retained [3]: Retain 75% after 2 h
1.5 h | – | CCCCCCCC[Si](C)(C)OCC1OC(n2cnc(N)nc2=O)CC1O (stereo not drawn) [Methyl, Methyl, n-Octyl] | –
22 h | 5.20 | CCC[Si](CCC)(CCC)OC[C@H]1O[C@@H](n2cnc(N)nc2=O)C[C@@H]1O [n-Propyl, n-Propyl, n-Propyl] | –
19 h | 2.54 | CCC[Si](CC)(CC)OC[C@H]1O[C@@H](n2cnc(N)nc2=O)C[C@@H]1O [OR-2102] | half-life (time to release DAC) [1]: ≥ 14 h; Stability t1/2 in PBS [1]: 20** + 19 h; AUC 0 → lim, DAC [5]: 0.285 µM·h; AUC 0 → lim, Total [5]: 0.366 µM·h; AUC 0 → lim, OR compound [5]: 0.081 µM·h; enzymatic stability in the presence of CDA [3]: gradually degraded by CDA; Enzymatic stability, retained [3]: Retain 46% after 2 h
12 h | 1.48 | CC(C)[Si](C)(C)OC[C@H]1O[C@@H](n2cnc(N)nc2=O)C[C@@H]1O [Methyl, Methyl, i-Propyl] | enzymatic stability in the presence of CDA [3]: stable in the presence of CDA

Continued, molecule first:

SMILES | t1/2 in PBS [1] | Log PO/PBS [2] | further results
CC[Si](CC)(OC[C@H]1O[C@@H](n2cnc(N)nc2=O)C[C@@H]1O)C(C)C [Ethyl, Ethyl, i-Propyl] | > 24 h | 2.56 | –
Nc1ccn([C@H]2C[C@H](O)[C@@H](CO)O2)c(=O)n1 [2'-deoxycytidine] | – | – | Michaelis constant (Cytidine deaminase (CDA)): 26 µM
Nc1ncn([C@H]2C[C@H](O)[C@@H](CO[Si](Cc3ccccc3)(Cc3ccccc3)Cc3ccccc3)O2)c(=O)n1 [Benzyl, Benzyl, Benzyl] | > 24 h | 4.69 | –
C[Si](C)(Cc1ccccc1)OC[C@H]1O[C@@H](n2cnc(N)nc2=O)C[C@@H]1O [Methyl, Methyl, Benzyl] | 2.5 h | 1.73 | enzymatic stability in the presence of CDA [3]: gradually degraded by CDA
Nc1nc(=O)n([C@@H]2O[C@H](CO)[C@@H](O)[C@H]2O)cc1F [5-fluorocytidine] | – | – | Michaelis constant (Cytidine deaminase (CDA)): 30 µM
C[Si](C)(OCC1OC(n2cnc(N)nc2=O)CC1O)C1CCCC1 (stereo not drawn) [Methyl, Methyl, c-Pentyl] | 15 h | 2.16 | –
CC[Si](CC)(OCC1OC(n2cnc(N)nc2=O)CC1O)C1CCCC1 (stereo not drawn) [Ethyl, Ethyl, c-Pentyl] | > 24 h | 3.10 | –
CC[Si](C)(CC)OC[C@H]1O[C@@H](n2cnc(N)nc2=O)C[C@@H]1O [Ethyl, Ethyl, Methyl] | 4 h | 1.49 | enzymatic stability in the presence of CDA [3]: stable in the presence of CDA
Nc1ncn([C@@H]2O[C@H](CO)[C@@H](O)[C@H]2O)c(=O)n1 [AZA, 5-azacytidine] | – | – | Michaelis constant (Cytidine deaminase (CDA)): 430 µM
Nc1ncn([C@H]2C[C@H](OP(=O)(O)OC[C@H]3O[C@@H](n4cnc5c(=O)[nH]c(N)nc54)C[C@@H]3O)[C@@H](CO)O2)c(=O)n1 [guadecitabine, reference compound] | – | – | dose with strongest effect of DNA demethylation [6]: 1.0 µM; DNA demethylation of exogenous UCHL1 promoter and OSR2 promoter CpG island ([6]; 0.0 to 10.0 μM): weaker demethylation effect than OR-2003 and OR-2100
C[Si](C)(C)OC[C@H]1O[C@@H](n2cnc(N)nc2=O)C[C@@H]1O [Methyl, Methyl, Methyl] | Unstable | – | stability in a protic solvent [4]: unstable
CC[Si](C)(C)OC[C@H]1O[C@@H](n2cnc(N)nc2=O)C[C@@H]1O [Methyl, Methyl, Ethyl] | 0.9 h | – | –
